Test results published in US20220016080A1, “COMPOUNDS THAT SELECTIVELY AND EFFECTIVELY INHIBIT HAKAI-MEDIATED UBIQUITINATION, AS ANTI-CANCER DRUGS” (FUNDACIÓN PROFESOR NOVOA SANTOS, priority 2018, published 2022).

How the values were obtained:
[1] = molecular target: T1, E3 ubiquitin-ligase Hakai (Mus musculus, UniProt Q9JIY2); assay: Hakai-dependent ubiquitination assay in 293T cells transfected with Flag-Hakai, v-Src and HA-ubiquitin; assay type: cell-based; details: 293T cells transfected with Src, treated 36 h
T1 construct: expressed in transfected cells; host or cells: HEK293T (293) cells, co-transfected with v-Src and HA-ubiquitin, and in A3 also with myc-E-cadherin
T1 sequence (Q9JIY2 1-491): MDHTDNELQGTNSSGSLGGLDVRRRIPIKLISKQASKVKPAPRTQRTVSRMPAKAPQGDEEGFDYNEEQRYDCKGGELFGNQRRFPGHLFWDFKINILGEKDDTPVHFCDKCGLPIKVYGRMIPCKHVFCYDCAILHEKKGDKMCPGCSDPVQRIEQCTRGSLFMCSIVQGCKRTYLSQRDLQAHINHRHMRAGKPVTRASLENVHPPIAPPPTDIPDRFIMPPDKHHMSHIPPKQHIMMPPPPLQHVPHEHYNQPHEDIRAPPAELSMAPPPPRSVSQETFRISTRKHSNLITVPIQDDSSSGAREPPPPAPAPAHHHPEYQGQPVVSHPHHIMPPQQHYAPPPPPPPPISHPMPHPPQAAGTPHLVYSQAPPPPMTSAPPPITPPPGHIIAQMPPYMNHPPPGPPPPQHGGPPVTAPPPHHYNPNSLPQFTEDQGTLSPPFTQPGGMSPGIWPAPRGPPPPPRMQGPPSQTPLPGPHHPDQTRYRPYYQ
Experimental: For ubiquitination assays, 750.000 HEK293T cells were seeded in 6-well cell culture plates and after 24 h were transfected with 0.25 μg Src, 0.75 μg Flag-Hakai, and 0.5 μg HA-ubiquitin with Lipofectamin 2000 (Invitrogen, UK). Six hours after transfection cells were treated with indicated concentrations of Hakin-1, Hakin-5 or the rest of the analogues tested for 36 h. Whole cell extracts were obtained in lysis buffer (20 mM Tris-HCl pH 7.5, 150 mM NaCl and 1% Triton X-100) containing 10 μg/ml leupeptin, 10 μg/ml aprotinin and 1 mM phenylmethanesulphonyl fluoride (PMSF), supplemented with 10 mM N-ethylmaleimide. Cells were harvested and subjected to western blotting using anti-HA antibody to detect ubiquitination.

[2] = test system: LoVo colon tumour cell line; assay: MTT cell viability assay, LoVo; assay type: cell-based; details: 72 h
Experimental: For cytotoxicity assays, 1×10^4 cells were seeded per well into a 96-well plate. After 24 h cells were treated with the indicated inhibitors for 72 h and a MTT colorimetric cell viability assay was performed following manufacturer's instructions (Sigma Aldrich, St Louis, Mo.). Absorbance was measured at 570 and 630 nm using a Multiskan Plus Reader (Nanoquant Infinite M200 Tecan Trading AG, Switzerland). Dose-response curves were designed with Graph Pad Prism Software and the half-maximal inhibitory concentration (IC50) values were calculated. Represented data are the mean±SEM of at least three independent experiments with six replicates per condition.

Hakai-MDCK cells [3] = assay: BrdU proliferation assay, Hakai-MDCK; assay type: cell-based; details: 48 h
Experimental: (§1) For BrdU assays, 1×10^4 of indicated cells were plated per well into a 96-well plate. After 24 h, cells were treated with the indicated inhibitors for 48 h. Three independent experiments were plated with six replicates per each condition. Cells were treated with […] BrdU for 2 h. BrdU incorporation into newly synthesized DNA was measured using a cell proliferation colorimetric immunoassay kit according to the manufacturer's instructions (Roche, Switzerland). Results are expressed as mean±S.D. Results are represented as percentage of positive cells (mean±S.D) of three independent experiments.

breast cancer MCF7 cell = assay: BrdU proliferation assay, MCF7; assay type: cell-based, human; details: 48 h
Experimental: as §1

[4] = test system: prostate cancer PC-3 cells; assay: BrdU proliferation assay, PC-3; assay type: cell-based, human; details: 48 h
Experimental: as §1

[5] = test system: bladder cancer 5637 cells; assay: BrdU proliferation assay, 5637; assay type: cell-based, human; details: 48 h
Experimental: as §1

Hakai-MDCK cells [6] = assay: Invasion assay, Hakai-MDCK; assay type: cell-based; details: treated 48 h before seeding
Experimental: For invasion assays, cells were treated with Hakin-1 or DMSO as vehicle for 48 h using 1% FBS during the last 24 hours. 3×10^5 MDCK, MDCK-Hakai or LoVo cells were seeded in a cell invasion chamber (Cell invasion assaykit, Chemicon International) containing medium with 2% FBS. After 72 hours for MDCK and MDCK-Hakai Invasive and 16 h for LoVo cells, invasive cells invaded that reach the lower chamber containing 30% FBS were fixed and stained with crystal violet (Sigma Aldrich, St Louis, Mo.) following the manufacturer's specifications. For migration assays, HT29 cells were cultured with Hakin-1 or DMSO as vehicle for 48 h, using medium without serum the last 24 h. In the cell migration chamber were seeded 3×10^5 HT29 cells (Cell migration kit, Millipore, Bedford, Mass.) containing medium without serum. After 16 h, migrated cells in the lower chamber containing serum with 30% FBS were stained with crystal violet and counted following the manufacturer's specifications. For both invasion and migration assays cells were counted in five fields photographed with an Olympus microscope using a 20× objective, experiments were performed in triplicates for each condition and the assays were repeated at least three times. Results are expressed as mean±SD.

O=C(O)c1ccc(-n2nnnc2SCC(=O)c2ccc([N+](=O)[O-])cc2)cc1 [Hakin-1, 4-(5-{[2-(4-nitrophenyl)-2-oxoethyl]thiol}-1H-tetrazol-1-yl)benzoic acid]
Hakai protein levels [1]: no effect was seen
ubiquitination mediated by Hakai (western blotting, anti-HA) ([1]; DMSO as control): strongly reduces the ubiquitination mediated by Hakai in a doses dependent-manner
cytotoxicity effect (cell viability, MTT) [2]: important inhibitory response
cell proliferation (BrdU) (Hakai-MDCK cells [3]): suppress proliferation
cell proliferation (BrdU) (breast cancer MCF7 cell): inhibits cell proliferation
cell proliferation (BrdU) [4]: inhibits cell proliferation
cell proliferation (BrdU) [5]: inhibits cell proliferation
cell invasion (Hakai-MDCK cells [6]): decreased cell invasion
